From ChEMBL document CHEMBL3792297, “Studies on phenothiazines: New microtubule-interacting compounds with phenothiazine A-ring as potent antineoplastic agents” (Bioorg Med Chem, 2016)

Key:
Ovis aries = species on record: Ovis aries; assay: Inhibition of sheep brain tubulin polymerization at 100 uM by DAPI staining-based fluorimetric method
[1] = Inhibition of sheep brain tubulin polymerization preincubated for 1 hr measured after 30 mins by turbidimetric-spectrophotometric method; design: species or system Ovis aries
[2] = Inhibition of sheep brain tubulin polymerization by DAPI staining-based fluorimetric method; design: species or system Ovis aries
Tubulin = Tubulin (Bos taurus, UniProt Q6B856+Q862L2+Q862F3); assay: Inhibition of bovine tubulin polymerization preincubated for 30 mins followed by GTP addition measured after 20 mins by spectrophotometric method; format: protein assay
[3] = Growth inhibition of human SF295 cells after 48 hrs by SRB assay; format: functional; conditions: SF-295, 48 h
A498 = assay: Growth inhibition of human A498 cells after 48 hrs by SRB assay; format: functional; conditions: A498, 48 h
[4] = Growth inhibition of human OVCAR3 cells after 48 hrs by SRB assay; format: functional; conditions: OVCAR-3, 48 h
[5] = Growth inhibition of human DU145 cells after 48 hrs by SRB assay; format: functional; conditions: DU-145, 48 h

| SMILES | inhibition (Ovis aries) | IC50 [2] | further results |
| --- | --- | --- | --- |
| S=C(c1ccc2c(c1)Sc1ccccc1N2)c1c[nH]c2ccccc12 | 10% | – | – |
| C=C(c1ccc(OC)c(O)c1)c1cc(OC)c(OC)c(OC)c1 | – | – | IC50 [1]: 1500 nM |
| COc1cc([C@@H]2c3cc4c(cc3C[C@H]3COC(=O)[C@@H]32)OCO4)cc(OC)c1OC [DESOXYPODOPHYLLOTOXIN] | 100% | 1800 nM | – |
| O=C(c1ccc(F)cc1Cl)N1c2ccccc2Sc2ccccc21 | 44% | – | – |
| COc1ccc(C(=O)c2cc(OC)c(OC)c(OC)c2)cc1O [PHENSTATIN] | 99% | 3400 nM | IC50 (Tubulin): 1000 nM; GI50 [3]: 52 nM; GI50 (A498): 380 nM; GI50 [4]: 2.3 nM; GI50 [5]: 34 nM |

Second part, led by results:

| inhibition (Ovis aries) | IC50 [2] | SMILES | further results |
| --- | --- | --- | --- |
| 48% | – | O=C(c1ccc(OC(F)(F)F)c(F)c1)N1c2ccccc2Sc2ccccc21 | – |
| 43% | – | Cc1cc(C(=O)N2c3ccccc3Sc3ccccc32)ccc1Br | – |
| 14% | – | COc1ccc(C(=S)N2c3ccccc3Sc3ccccc32)cc1F | – |
| 95% | 9500 nM | COc1ccc(C(=O)N2c3ccccc3Sc3ccccc32)cc1N | – |
